What all share (format): in vivo, mouse
The test system of assay [1] is apo-E knockout mice fed high-cholesterol diet. In words: Quantitative analysis of atherosclerotic plaques (Sudan IV stained aortas). The note with it: 1 mg/kg/d of each drug, 12 weeks, vs high-cholesterol diet alone. The protocol:
Five pairs of C57BL/6J mice and three pairs of homozygous apo-E knockout mice (on C57BL/6J background) were obtained from Jackson Laboratories (Bar Harbor, Me.). They were bred by brother-sister mating and housed in a room lit from 6:00 AM to 6:00 PM and kept at 21° C. The C57BL/6J mice (n=10) were continued on regular diet for the entire study period. The apo-E knockout mice were divided into four groups. Group 1 (n=10) animals were given high-cholesterol diet (1% cholesterol) alone for 12 weeks since the age of 6 weeks; Group 2 (n=10) animals were given high-cholesterol diet with candesartan (1 mg/kg/d) for 12 weeks since the age of 6 weeks; Group 3 (n=10) animals were given high-cholesterol diet with the rosuvastatin (1 mg/kg/d) for 12 weeks since the age of 6 weeks; Group 4 (n=10) animals were given high-cholesterol diet with candesartan (1 mg/kg/d) and rosuvastatin (1 mg/kg/d) for 12 weeks since the age of 6 weeks. At the end of 12-week-treatment, the mice were sacrificed and subject to studies described below. All experimental procedures were performed in accordance with protocols approved by the institutional Animal Care and Usage Committee of University of Arkansas for Medical Sciences. Quantitative Analysis of Atherosclerotic Plaques At the end of 12-week-treatment, 5 mice from each group were euthanized and the aortas were separated from surrounding tissues. After removal of the adventitial fat tissue, the aortas were opened longitudinally from the aorta arch to the iliac bifurcation, and fixed in 10% formalin for 24 hours. Then the aortas were rinsed in 70% alcohol briefly, stained with Sudan IV solution for 15 minutes, differentiated in 80% alcohol for 20 minutes and washed in running water for 1 hour (Russell L. Techniques for studying atherosclerotic lesion, Lab Invest. 1958; 7:42-47). […] The images were analyzed by soft ware (Image Pro Plus, Media Cybernetics). […] Statistical significance was determined in multiple comparisons among independent groups of data in which ANOVA and the F test indicated the presence of significant differences. […]

Another assay deals with LOX-1. The experiment in a line: LOX-1 expression in aorta by RT-PCR and Western blot. The note with it: aorta of apo-E knockout mice, high-cholesterol diet, 1 mg/kg/d of each drug, 12 weeks; vs high-cholesterol diet alone. The protocol:
(§1) Five pairs of C57BL/6J mice and three pairs of homozygous apo-E knockout mice (on C57BL/6J background) were obtained from Jackson Laboratories (Bar Harbor, Me.). They were bred by brother-sister mating and housed in a room lit from 6:00 AM to 6:00 PM and kept at 21° C. The C57BL/6J mice (n=10) were continued on regular diet for the entire study period. The apo-E knockout mice were divided into four groups. Group 1 (n=10) animals were given high-cholesterol diet (1% cholesterol) alone for 12 weeks since the age of 6 weeks; Group 2 (n=10) animals were given high-cholesterol diet with candesartan (1 mg/kg/d) for 12 weeks since the age of 6 weeks; Group 3 (n=10) animals were given high-cholesterol diet with the rosuvastatin (1 mg/kg/d) for 12 weeks since the age of 6 weeks; Group 4 (n=10) animals were given high-cholesterol diet with candesartan (1 mg/kg/d) and rosuvastatin (1 mg/kg/d) for 12 weeks since the age of 6 weeks.
(§2) At the end of 12-week-treatment, 5 mice from each group were euthanized and the aortas (from aorta arch to iliac bifurcation) were separated from surrounding tissues and stored on dry ice. Each aorta was cut into four segments, two of which were used to extract total RNA with the single-step acid-guanidinium thiocyanate-phenol-chloroform method as described earlier (27). […]

The next assay has as its system CD40. The experiment in a line: CD40 expression in aorta by RT-PCR and Western blot. The conditions noted are these: aorta of apo-E knockout mice, high-cholesterol diet, 1 mg/kg/d of each drug, 12 weeks; vs high-cholesterol diet alone. As to the method: as §1, §2
The test system of a further assay is MMP-1. The experiment in a line: MMP-1 expression in aorta by RT-PCR and Western blot. The conditions noted are these: aorta of apo-E knockout mice, high-cholesterol diet, 1 mg/kg/d of each drug, 12 weeks; vs high-cholesterol diet alone. As to the method:
as §1, §2

The subject of a further assay is MMP-2. The experiment in a line: MMP-2 expression in aorta by RT-PCR and Western blot. The note with it: aorta of apo-E knockout mice, high-cholesterol diet, 1 mg/kg/d of each drug, 12 weeks; vs high-cholesterol diet alone. The protocol:
as §1, §2

The next assay deals with MMP-9. The experiment in a line: MMP-9 expression in aorta by RT-PCR and Western blot. The note with it: aorta of apo-E knockout mice, high-cholesterol diet, 1 mg/kg/d of each drug, 12 weeks; vs high-cholesterol diet alone. As to the method:
as §1, §2

The next assay deals with TIMP-1. In words: TIMP-1 protein expression in aorta by Western blot. The conditions noted are these: aorta of apo-E knockout mice, high-cholesterol diet, 1 mg/kg/d of each drug, 12 weeks; vs high-cholesterol diet alone. The protocol:
(§3) Five pairs of C57BL/6J mice and three pairs of homozygous apo-E knockout mice (on C57BL/6J background) were obtained from Jackson Laboratories (Bar Harbor, Me.). They were bred by brother-sister mating and housed in a room lit from 6:00 AM to 6:00 PM and kept at 21° C. The C57BL/6J mice (n=10) were continued on regular diet for the entire study period. The apo-E knockout mice were divided into four groups. […]
(§4) Each mouse aorta was cut into four segments. […] Membranes were washed and then incubated with 1:5000 dilution specific secondary antibody (Amersham Life Science) for 2 hours at room temperature, and the membranes were washed and detected with the ECL system (Amersham Life Science). The relative intensities of protein bands were analyzed by Scan-gel-it software (Li D Y, Zhang Y C, Sawamura T, Mehta J L. Circ Res. 1999; 84:1043-1049).
(§5) All data represent mean of duplicate samples. […] Statistical significance was determined in multiple comparisons among independent groups of data in which ANOVA and the F test indicated the presence of significant differences. […]

A further assay relates to TIMP-2. In words: TIMP-2 protein expression in aorta by Western blot. The conditions noted are these: aorta of apo-E knockout mice, high-cholesterol diet, 1 mg/kg/d of each drug, 12 weeks; vs high-cholesterol diet alone. The protocol: as §3, §4, §5

Results on 2 compounds are retold here after patent publication US7932263B2, “Therapeutic treatment” (AstraZeneca AB, priority 2003, dated 2011).

`CCOc1nc2cccc(C(=O)O)c2n1Cc1ccc(-c2ccccc2-c2nnn[nH]2)cc1` [candesartan]: the decrease of atherosclerosis result in assay [1] was “about 35%”.

`CC(C)c1nc(N(C)S(C)(=O)=O)nc(-c2ccc(F)cc2)c1/C=C/[C@@H](O)C[C@@H](O)CC(=O)O` [rosuvastatin]: in assay [1], the decrease of atherosclerosis is on record as about 25% and the “extent of atherosclerosis (in words)” value is “decreased the extent of atherosclerosis”. The “LOX-1 expression (mRNA and protein)” value in the assay with LOX-1 is “decreased the LOX-1 expression (mRNA and protein), albeit modestly”. In addition, the “CD40 expression (mRNA and protein)” value with CD40 is “slightly decreased CD40 expression”. The “MMP-1 expression (mRNA and protein)” value in the assay on MMP-1 was “decreased MMP-1, -2 and -9 expression (mRNA and protein), albeit modestly”. Moreover, the “MMP-2 expression (mRNA and protein)” value in the assay on MMP-2 is “decreased MMP-1, -2 and -9 expression (mRNA and protein), albeit modestly”. The “MMP-9 expression (mRNA and protein)” value with MMP-9 was “decreased MMP-1, -2 and -9 expression (mRNA and protein), albeit modestly”. In addition, the TIMP-1 protein expression entry in the assay with TIMP-1 is “reduced TIMP-1 and TIMP-2 expression by a small degree”. Further, the TIMP-2 protein expression result in the assay on TIMP-2 was “reduced TIMP-1 and TIMP-2 expression by a small degree”.
